Experimental data published in the supplement of paper PMC11451515.

Experiments:
Settings in all cases: 48 h
P12-Ichikawa [1] = experiment: AUC of viability dose-response curve (% viability x log10 dose units); higher = less sensitive
How it was run: (§1)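 Leukemia cells adapted to each medium were seeded in 1536-well plates (500 or 1000 cells/well) and given library compounds in DMSO for 48 h at 37°C. The 11 threefold doses spanned 47 μM to 0.79 nM, and CellTiter-Glo One luminescence was normalised per plate to DMSO and cell-free wells before four-parameter log-logistic fitting on log10 dose. Area under the curve was integrated with the trapezoidal rule, scaling curves above full viability and removing curves that failed quality control.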

NOMO1 [2] = experiment: as above
How it was run: as §1

SEM cells [3] = experiment: as above
How it was run: as §1

P12-Ichikawa [4] = experiment: cell viability relative to DMSO control; higher = less cytotoxic
How it was run: (§2)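 Viability was expressed as a per-plate percentage of DMSO wells, with cell-free wells as background. Leukemia cells (NOMO1 or SEM at 500 cells/well, P12-Ichikawa at 1000 cells/well) were adapted for at least four passages in each medium and seeded in 1536-well plates (5 μl). Library compounds in DMSO were pin-dosed over an 11-point threefold series from 47 μM to 0.79 nM, and CellTiter-Glo One luminescence was read after 48 h at 37°C.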

NOMO1 [5] = experiment: as above
How it was run: as §2

SEM cells [6] = experiment: as above
How it was run: as §2

Cc1ccccc1C(OCCN(C)C)c1ccccc1 (centres undefined)
AUC of viability dose-response curve
Settings	NOMO1 [2]	P12-Ichikawa [1]	SEM cells [3]
HPLM + 10% dialyzed FBS	462	446	453
RPMI 5 mM glucose + 10% FBS	468	476	463
RPMI 5 mM glucose + 10% dialyzed FBS	457	469	465

cell viability [%]
Settings	NOMO1 [5]	P12-Ichikawa [4]	SEM cells [6]
HPLM + 10% dialyzed FBS, 0.000781 µM	102	106	102
HPLM + 10% dialyzed FBS, 0.00234 µM	117	118	95.2
HPLM + 10% dialyzed FBS, 0.00702 µM	145	117	106
HPLM + 10% dialyzed FBS, 0.0211 µM	138	110	101
HPLM + 10% dialyzed FBS, 0.0632 µM	135	113	105
HPLM + 10% dialyzed FBS, 0.19 µM	143	118	119
HPLM + 10% dialyzed FBS, 0.569 µM	142	107	120
HPLM + 10% dialyzed FBS, 1.71 µM	122	129	115
HPLM + 10% dialyzed FBS, 5.12 µM	116	127	117
HPLM + 10% dialyzed FBS, 15.4 µM	125	123	117
HPLM + 10% dialyzed FBS, 46.1 µM	57.5	123	99.1
RPMI 5 mM glucose + 10% FBS, 0.000781 µM	121	–	105
RPMI 5 mM glucose + 10% FBS, 0.00234 µM	112	–	108
RPMI 5 mM glucose + 10% FBS, 0.00702 µM	120	–	128
RPMI 5 mM glucose + 10% FBS, 0.0211 µM	120	–	115
RPMI 5 mM glucose + 10% FBS, 0.0632 µM	120	–	98.9
RPMI 5 mM glucose + 10% FBS, 0.19 µM	115	–	109
RPMI 5 mM glucose + 10% FBS, 0.569 µM	125	–	124
RPMI 5 mM glucose + 10% FBS, 1.71 µM	125	–	121
RPMI 5 mM glucose + 10% FBS, 5.12 µM	127	–	107
RPMI 5 mM glucose + 10% FBS, 15.4 µM	117	–	103
RPMI 5 mM glucose + 10% FBS, 46.1 µM	116	–	99.4
RPMI 5 mM glucose + 10% dialyzed FBS, 0.000781 µM	–	114	99.3
RPMI 5 mM glucose + 10% dialyzed FBS, 0.00234 µM	–	126	109
RPMI 5 mM glucose + 10% dialyzed FBS, 0.00702 µM	–	118	116
RPMI 5 mM glucose + 10% dialyzed FBS, 0.0211 µM	–	123	120
RPMI 5 mM glucose + 10% dialyzed FBS, 0.0632 µM	–	121	124
RPMI 5 mM glucose + 10% dialyzed FBS, 0.19 µM	–	113	125
RPMI 5 mM glucose + 10% dialyzed FBS, 0.569 µM	–	124	122
RPMI 5 mM glucose + 10% dialyzed FBS, 1.71 µM	–	131	130
RPMI 5 mM glucose + 10% dialyzed FBS, 5.12 µM	–	124	121
RPMI 5 mM glucose + 10% dialyzed FBS, 15.4 µM	–	128	115
RPMI 5 mM glucose + 10% dialyzed FBS, 46.1 µM	–	116	114

NC[C@@H]1O[C@H](O[C@H]2[C@@H](O)[C@H](O[C@@H]3[C@@H](O)[C@H](N)C[C@H](N)[C@H]3O[C@H]3O[C@H](CN)[C@@H](O)[C@H](O)[C@H]3N)O[C@@H]2CO)[C@H](N)[C@@H](O)[C@@H]1O.O=S(=O)(O)O.O=S(=O)(O)O.O=S(=O)(O)O
AUC of viability dose-response curve
Settings	NOMO1 [2]	P12-Ichikawa [1]	SEM cells [3]
HPLM + 10% dialyzed FBS	468	473	476
RPMI 5 mM glucose + 10% FBS	465	467	463
RPMI 5 mM glucose + 10% dialyzed FBS	428	461	458

cell viability [%]
Settings	NOMO1 [5]	P12-Ichikawa [4]	SEM cells [6]
HPLM + 10% dialyzed FBS, 0.000781 µM	103	108	104
HPLM + 10% dialyzed FBS, 0.00234 µM	82.8	96.4	99.7
HPLM + 10% dialyzed FBS, 0.00702 µM	110	108	103
HPLM + 10% dialyzed FBS, 0.0211 µM	113	107	106
HPLM + 10% dialyzed FBS, 0.0632 µM	101	105	98.4
HPLM + 10% dialyzed FBS, 0.19 µM	110	107	99.4
HPLM + 10% dialyzed FBS, 0.569 µM	110	103	104
HPLM + 10% dialyzed FBS, 1.71 µM	106	103	91
HPLM + 10% dialyzed FBS, 5.12 µM	107	107	98.7
HPLM + 10% dialyzed FBS, 15.4 µM	88.5	99.5	105
HPLM + 10% dialyzed FBS, 46.1 µM	92.9	98.3	106
RPMI 5 mM glucose + 10% FBS, 0.000781 µM	95.3	102	92.9
RPMI 5 mM glucose + 10% FBS, 0.00234 µM	105	97.9	105
RPMI 5 mM glucose + 10% FBS, 0.00702 µM	99.2	104	110
RPMI 5 mM glucose + 10% FBS, 0.0211 µM	107	98	98.8
RPMI 5 mM glucose + 10% FBS, 0.0632 µM	111	103	69.1
RPMI 5 mM glucose + 10% FBS, 0.19 µM	107	97.6	101
RPMI 5 mM glucose + 10% FBS, 0.569 µM	96.8	101	101
RPMI 5 mM glucose + 10% FBS, 1.71 µM	108	98	102
RPMI 5 mM glucose + 10% FBS, 5.12 µM	87.2	100	104
RPMI 5 mM glucose + 10% FBS, 15.4 µM	98.5	96.4	94
RPMI 5 mM glucose + 10% FBS, 46.1 µM	94.9	96	105
RPMI 5 mM glucose + 10% dialyzed FBS, 0.000781 µM	92.2	105	109
RPMI 5 mM glucose + 10% dialyzed FBS, 0.00234 µM	90.5	100	115
RPMI 5 mM glucose + 10% dialyzed FBS, 0.00702 µM	86.8	105	116
RPMI 5 mM glucose + 10% dialyzed FBS, 0.0211 µM	96.1	103	113
RPMI 5 mM glucose + 10% dialyzed FBS, 0.0632 µM	96.5	96.8	90.7
RPMI 5 mM glucose + 10% dialyzed FBS, 0.19 µM	85.7	102	104
RPMI 5 mM glucose + 10% dialyzed FBS, 0.569 µM	92.8	102	115
RPMI 5 mM glucose + 10% dialyzed FBS, 1.71 µM	90.1	93.3	105
RPMI 5 mM glucose + 10% dialyzed FBS, 5.12 µM	89.9	94.6	108
RPMI 5 mM glucose + 10% dialyzed FBS, 15.4 µM	79.4	97.9	105
RPMI 5 mM glucose + 10% dialyzed FBS, 46.1 µM	83	93.4	100
